# Measurements from US11629141B2, “Proteasome inhibitors and uses thereof” (CORNELL UNIVERSITY, priority 2015, dated 2023).
# Assays:
# [1] = tested on: Pf Gametocytes; assay: Gametocyte killing assay (DilC1(5), flow cytometry); type: cell-based; conditions: Plasmodium falciparum; NF54 peg4-tdTomato, 72 hour incubation; read-out: EC50 against Pf Gametocytes
# Procedure: Asexual replication of NF54 peg4-tdTomato parasites was eliminated by treating with 50 mM GlcNAc and 20 U/mL Heparin for 3 days. NF54 peg4-tdTomato parasites then were maintained using standard culture techniques. Gametocytes were induced synchronously according to Fivelman et al., “Improved Synchronous Production of Plasmodium Falciparum Gametocytes in Vitro,” Mol Biochemo Parasitol. 154(1):119-123 (2007), which is hereby incorporated by reference in its entirety. Asexual replication was eliminated by treating with 50 mM GlcNAc for 3 days. Gametocyte killing assays were setup on days 5 and 10 in triplicate 96-well format at 1% hematocrit and 2% gametocytemia. Compounds were setup in triplicate and serially diluted 3-fold. In addition, 6 solvent controls (DMSO) were distributed evenly across the plate. Following a 72 hour incubation, Stage III-IV (Day 5-7) and Stage IV-V (Day 10-12), (start the incubation in the afternoon on Day 5 and Day 10, take out plate for assay on Day8 and Day13 afternoon) cultures were stained with 16 nM Hoechst 33342 and 50 nM DilC1(5) for 30 min at 37 C. Using a Cytek DxP12 flow cytometer, gametocytemia was determined by gating for DNA+, hemozoin-high cells and gametocyte viability was inferred based on mitochondrial membrane potential-dependent accumulation of DilC1(5) for 2000-3000 gametocytes (Tanaka et al., “Potent Plasmodium Falciparum Gametocytocidal Activity of Diaminonaphthoquinones, Lead Antimalarial Chemotypes Identified in an Antimalarial Compound Screen,” Antimicrob. Agents Chemother. 2015, 59:1389 (2015), which is hereby incorporated by reference in its entirety). Mean DilC1(5) signal was normalized to solvent control and the overall minimum and used to calculate the EC50 (FIG. 3 and Table 4).
# [2] = molecular target: T1, hu i-20S β5i (Homo sapiens, UniProt P28062); assay: Kinetic analysis, substrate titration of hu i-20S steady state velocities; type: biochemical
# T1 construct: purchased Boston Biochem Inc
# Procedure: FIGS. 1A-1E are graphs showing inhibition modality of PKS21004 against human proteasomes. Washout of c-20S from the preincubated c-20S and […] to recover the β5c activity (FIG. 1A). Substrate titration of hu i-20S (FIG. 1B) and c-20S (FIG. 1D) steady state velocities in the presence of PKS21004 at the concentrations indicated next to each curve. Data as in (FIG. 1B) were plotted double reciprocal in (FIG. 1C), and (FIG. 1D) in (FIG. 1E).
# A washout experiment was used to confirm the reversibility of this class of proteasome inhibitors, as expected from their non-covalent chemistry.
structure (smiles),measurement,setting,value
CC(C)(C)NC(=O)C[C@H](NC(=O)CCc1ccccc1)C(=O)NCCNC(=O)c1cccc(-c2ccccc2)c1 [PKS21004],EC50,[1],50 nM
same,Ki,[2],77 nM
same,α for i-20S (β5i),[2]; fit to equation for noncompetitive inhibitors,0.28 and ≈ 0.28
same,modality of inhibition of β5i,[2]; with respect to substrate,noncompetitive inhibitor
